Publication PMC5750217 (Nature Communications, 2018)

Legend:
[1] = biological target: T1, ASCT1 (Homo sapiens, UniProt P43007); assay: Radiolabelled uptake in oocytes expressing ASCT1; format: cell-based; settings: 10 µM radiolabelled substrate, 10 min, room temperature
T1 construct: expressed in transfected cells; host or cells: Xenopus laevis oocytes (cRNA injection)
T1 sequence (P43007 1-532): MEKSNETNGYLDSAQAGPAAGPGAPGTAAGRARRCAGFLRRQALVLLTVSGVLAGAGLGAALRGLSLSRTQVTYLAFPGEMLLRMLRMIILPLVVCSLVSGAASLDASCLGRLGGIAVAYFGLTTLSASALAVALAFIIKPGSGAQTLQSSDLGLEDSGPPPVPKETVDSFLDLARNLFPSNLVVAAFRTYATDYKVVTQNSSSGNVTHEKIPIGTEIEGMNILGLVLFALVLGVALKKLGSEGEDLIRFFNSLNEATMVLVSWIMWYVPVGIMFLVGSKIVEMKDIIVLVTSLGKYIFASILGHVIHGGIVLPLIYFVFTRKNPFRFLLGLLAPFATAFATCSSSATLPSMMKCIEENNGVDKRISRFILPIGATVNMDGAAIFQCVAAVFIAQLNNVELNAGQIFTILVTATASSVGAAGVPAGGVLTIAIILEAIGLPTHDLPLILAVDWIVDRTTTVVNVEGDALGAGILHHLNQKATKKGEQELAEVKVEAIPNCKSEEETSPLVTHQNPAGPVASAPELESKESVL
Description: (§1) Uptake of L-[^3H]amino acids (PerkinElmer Life Sciences) was measured in oocytes expressing wild-type and mutant ASCT1, and uninjected oocytes. Five oocytes were incubated in Cl^−-containing buffer with 10 µM L-[^3H]amino acids at room temperature. After 10 min, uptake was terminated by three rapid washes in ice-cold Cl^−-containing buffer followed by lysis in 50 mM NaOH and 1% SDS. L-[^3H]amino acids were measured by scintillation counting using a Trilux beta counter (PerkinElmer Life Sciences).
(§2) Supplementary Figure 6. GltPh‐R397C, ASCT1 and ASCT2 are functional cysteine transporters. (a) […]
(§3) 7.5) containing 1 µM of valinomycin and the 10µM 35S‐cysteine. […]
All data represent the mean of triplicate
(§4) (1 picture or pasted object on this page, not shown here)

[2] = biological target: T2, ASCT2 (Homo sapiens, UniProt Q15758); assay: Radiolabelled uptake in oocytes expressing ASCT2; format: cell-based; settings: 10 µM radiolabelled substrate, 10 min, room temperature
T2 sequence (Q15758 1-541): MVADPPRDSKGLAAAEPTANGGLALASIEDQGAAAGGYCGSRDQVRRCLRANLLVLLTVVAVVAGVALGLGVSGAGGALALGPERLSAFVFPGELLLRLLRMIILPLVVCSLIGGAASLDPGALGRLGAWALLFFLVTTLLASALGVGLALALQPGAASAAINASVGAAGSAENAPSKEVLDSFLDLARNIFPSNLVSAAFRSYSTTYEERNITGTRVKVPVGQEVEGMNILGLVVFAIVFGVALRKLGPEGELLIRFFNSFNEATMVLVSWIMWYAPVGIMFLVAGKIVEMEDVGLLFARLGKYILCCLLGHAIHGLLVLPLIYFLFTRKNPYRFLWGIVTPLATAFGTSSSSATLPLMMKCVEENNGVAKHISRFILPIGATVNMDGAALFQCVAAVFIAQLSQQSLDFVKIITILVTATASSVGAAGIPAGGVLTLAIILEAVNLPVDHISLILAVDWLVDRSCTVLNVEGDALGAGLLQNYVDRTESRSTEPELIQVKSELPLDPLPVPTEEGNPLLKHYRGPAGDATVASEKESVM
Description: as §1, §2, §3, §4

SMILES: NC(=O)CC[C@H](N)C(=O)O [L-glutamine]
- Radiolabelled substrate uptake into oocytes (in words) [1]: no glutamine transport is observed
- Radiolabelled substrate uptake into oocytes (in words) [2]: robust L-[^3H]glutamine uptake

SMILES: N[C@@H](CS)C(=O)O [L-cysteine]
- Radiolabelled substrate uptake into oocytes (in words) [1]: robust L-[^35S]cysteine uptake
- Radiolabelled substrate uptake into oocytes (in words) [2]: robust L-[^35S]cysteine uptake

SMILES: N[C@@H](CO)C(=O)O [L-serine]
- Radiolabelled substrate uptake into oocytes (in words) [1]: observe L-[^3H]serine uptake
- Radiolabelled substrate uptake into oocytes (in words) [2]: observe L-[^3H]serine uptake
